Results published in US20260274828A1, “BROAD SPECTRUM ANTIFUNGAL KETO-ALKYL-PYRIDINIUM COMPOUNDS” (priority 2023, published 2026).

Legend:
C. auris = assay: Planktonic MIC, CLSI guidelines; assay type: cell-based, Candida auris; details: Candidozyma auris
Method: Minimum inhibitory concentrations were determined using CLSI guidelines (Beattie & Krysan, 2021; Wiederhold, 2021). All yeasts were cultured overnight in 3 mL YPD at 30° C., then washed twice in sterile PBS. Two-fold serial dilutions of each compound were prepared in RMPI+MOPS pH 7 (Gibco RPMI 1640 with L-glutamine [11875-093] and 0.165M 352 MOPS), then 1×10^3 cells were added per well. Plates were incubated at 37° C. for 24 hours (C. albicans and S. cerevisiae) or 72 hours (C. neoformans). For A. fumigatus and F. oxysporum wells were inoculated with 1.25×10^4 conidia. Plates were incubated at 37° C. for 48 hours for A. fumigatus and 72 hours for F. oxysporum. All MICs are defined as the well with complete growth inhibition as determined by visual inspection with the exception of MICs of fluconazole against C. albicans where the MIC is defined as at least 50% reduction in growth compared to the control.

C. albicans = assay: Checkerboard assay with clinical antifungals (FICI); assay type: cell-based, Candida albicans; details: with fluconazole
Method: To determine if compounds interacted with clinically used antifungal drugs, checkerboard assays were performed and fractional inhibitory concentration indices were determined. […] The FICI for compound B and fluconazole is 8.25 due to the 8-fold increase in fluconazole concentration in the combination; however, the concentration of compound B at FIC is reduced by 4-fold relative to compound B as a single agent (Table 3).

HepG2 cells = assay: Mammalian cell culture toxicity assay (LDH release and XTT); assay type: cell-based, human
Method: HepG2 cells (ATCC, #) were maintained and cultured in HepG2 media (DMEM (Gibco, Cat #11965-092) with 5% FBS, 20 mM Glutamine, and Penicillin/Streptomycin) at 37° C. with 5% CO2. Cells were seeded in 96-well plates at a density of 1.25×10^4 cells/well and incubated overnight at 37° C. with 5% CO2, then media was removed and replaced with media containing a two-fold dilution series of compounds with equal DMSO concentrations across all wells including no compound controls. Cells were incubated for an additional 24 hours. Supernatant was removed and used to quantify lactate dehydrogenase release using the CyQuant LDH assay kit (Invitrogen, Cat #C20300) following the manufacturer's directions. LDH signal was normalized to a max lysis control. The remaining cells were then used to quantify cellular metabolism by XTT. Briefly, cells were washed, then 0.9 mg/mL XTT (Sigma, CAT #X4626)+320 μg/mL PMS ([…] methosulfate; Sigma, Cat #P9625) in HepG2 media was added to each well. Plates were incubated at 37° C., with 5% CO2 for 2 hours, then absorbance was measured at 490 nm.

C. albicans SC5314 = assay: Rat model of Candida albicans vascular catheter infection; assay type: in vivo
Method: C. albicans biofilm growth during infection of implanted medical devices was measured using an external jugular-vein, rat-catheter infection model (Nett et al., 2012). Briefly, a 1×10^6 cells/ml inoculum for each strain or strain combination was allowed to grow on an internal jugular catheter placed in a pathogen-free female rat (16-week old, 400 g) for 24 hours. After this period, the catheter volumes were removed and the catheters were flushed with 0.9% NaCl. The biofilms were dislodged by sonication and vortexing. Viable cell counts were determined by dilution plating. Three replicates were performed for each strain.
After a 24 hours biofilm formation phase, the devices were removed, sectioned to expose the intraluminal surface, and processed for SEM imaging. Briefly, one milliliter fixative (4% formaldehyde and 1% glutaraldehyde in PBS) was added to each catheter tube and tubes were fixed at 4° C. overnight. Catheters were then washed with PBS prior to incubation in 1% OsO4 for 30 minutes. Samples were then serially dehydrated in ethanol (30-100%). Critical point drying was used to completely dehydrate the samples prior to palladium-gold coating. Samples were imaged on a SEM LEO 1530, with Adobe Photoshop 2022 (v. 23.2.2) used for image compilation.
One potential approach to managing central venous catheter infections is to treat the lumen of the catheter with an anti-infective solution that is locked within the catheter and not introduced into the patient (Chandra et al., 2018). This strategy is most often applied to catheters infected with bacteria but has been proposed for fungal infections as well (Pappas et al., 2016; Mermel et al., 2009). To test the efficacy of KAPs in this setting, a rat model of C. albicans venous catheter infection was employed (Nett et al., 2023). The catheter was infected with C. albicans SC5314 and, on post-infection day 1, treated with A (8 μg/mL solution within catheter) or vehicle. After 24 hours, the catheter was removed and processed for fungal burden and scanning electron microscopy. […]

[1] = 8 μg/mL solution within catheter, 24 hours

Nc1cc[n+](CC(=O)c2ccc3c(c2)OC(c2ccccc2)(c2ccccc2)O3)cc1.[Cl-] [Compound A]
MIC (C. auris; strain 0381, drug susceptible): 8 µg/mL | MIC (C. auris; strain 0390, multi-drug resistant): 2 µg/mL | interaction with clinical antifungal (C. albicans): antagonistic | LD50, cell lysis assay (HepG2 cells; HepG2, LDH release, 24 h): 9 µg/mL | LD50, metabolic activity assay (HepG2 cells; HepG2, XTT, 24 h): 20 µg/mL | LD50, toxicity against human cell lines (HepG2 cells; readout not given): 9 µg/mL | extent of remaining biofilm (scanning electron microscopy) (C. albicans SC5314; [1]): dramatic reduction | reduction in fungal burden relative to vehicle-treated catheters (C. albicans SC5314; [1]): > 1 log10 | fungal burden of the catheter (C. albicans SC5314; 8 μg/mL, 24 hr): significantly reduced
